According to article PMC11243327, “Design, Synthesis, Antitumor, and Antiplasmodial Evaluation of New 7-Chloroquinoline–Benzimidazole Hybrids” (Molecules, 2024):
Where a name gives a salt, the structure may show the parent alone. Read-outs that look alike come from different tables or passages of the source.

What was measured:
[1] = tested on: P. falciparum Dd2 (multiresistant), erythrocytic stage; test: Antiplasmodial HRP2 assay, PfDd2; assay type: cell-based, Plasmodium falciparum; settings: read-out: IC50 PfDd2
Procedure: (§1) Method used to evaluate the antiplasmodial activity of quinoline–benzimidazole hybrids against two P. falciparum strains, chloroquine-sensitive (Pf3D7) and chloroquine-resistant (PfDd2), was previously described. […] Chloroquine was used as a positive control.
(§2) In brief, 96-well plates were pre-coated with the tested compounds at 1:3 dilution before ring-stage parasites were added to the complete culture medium at a hematocrit of 1.5% and a parasitemia of 0.05%. […] All compounds were analyzed in duplicate in at least two independent experiments. The IC50 was determined by nonlinear regression analysis of the logarithmic concentration-response curves using the drc package v3.0-1 of R v4.1.0 [56].

[2] = tested on: P. falciparum 3D7 (CQ-susceptible), erythrocytic stage; test: Antiplasmodial HRP2 assay, Pf3D7; assay type: cell-based, Plasmodium falciparum; settings: read-out: IC50 Pf3D7
Procedure: as §1, §2

[3] = tested on: HeLa (human cervical adenocarcinoma); test: Antiproliferative MTT assay, HeLa; assay type: cell-based; settings: 72 h, mean ± SD of three experiments
Procedure: (§3) The effect of the new synthesized compounds was tested on five human tumor cell lines, HeLa (human cervical adenocarcinoma; from ATCC), CaCo-2 (human colorectal adenocarcinoma), HL-60 (acute promyelocytic leukemia), HuT78 (T-cell lymphoma), and THP-1 (acute monocytic leukemia), as well as one non-tumor cell line, MRC-5 (human fetal lung fibroblasts). The MRC-5 cells were used between 24 and 26 passages. The cells were cultured in two different types of media: DMEM (Gibco Thermo Fisher Scinetific Inc., Runcorn, UK) and RPMI 1640 (Gibco, Thermo Fisher Scinetific Inc., UK). Both media were supplemented with 2 mM glutamine, fetal bovine serum (10%; heat inactivated), and antibiotics (100 U penicillin and 0.1 mg streptomycin). RPMI 1640 was additionally supplemented with 10 mM HEPES and 1 mM sodium pyruvate. Cells growing in a monolayer were cultured in DMEM, while cells growing in suspension were cultured in RPMI 1640. Cells were grown in humidified atmosphere under the conditions of 37 °C/5% CO2 gas in a CO2 incubator (IGO 150 CELLlife^TM, JOUAN, Thermo Fisher Scientific, Waltham, MA, USA).
(§4) Growth-inhibitory activity was assessed using a slightly modified procedure based on the National Cancer Institute’s protocol. Briefly, cells were seeded in 96-well microtiter plates and incubated for 24 h. They were then treated with 10^−7 to 10^−4 M concentrations of the tested compounds for an additional 72 h. After the treatment period, the effects of the tested compounds on the growth rate of the cells were examined using the MTT assay. Absorbance was measured at 595 nm using a microplate reader. The IC50 value, which represents a 50% inhibition of cell growth, and QC calculation were performed using the GraphPadPrism software (La Jolla, USA), v. 5.03. and Excel software, Office 365. The selectivity index was calculated according to the following formula: SI=IC50 value of normal cell line/IC50 value of cancer cell line
(§5) The effect of each concentration was analyzed by plotting the logarithm of the concentration of the evaluated compound against the corresponding percentage inhibition value using least squares.

[4] = tested on: THP-1 (acute monocytic leukemia); test: Antiproliferative MTT assay, THP-1; assay type: cell-based, human; settings: mean ± SD of three experiments
Procedure: as §3, §4, §5

HuT78 (T-cell lymphoma) = test: Antiproliferative MTT assay, Hut78; assay type: cell-based, human; settings: mean ± SD of three experiments
Procedure: as §3, §4, §5

[5] = tested on: CaCo-2 (human colorectal adenocarcinoma); test: Antiproliferative MTT assay, CaCo-2; assay type: cell-based; settings: mean ± SD of three experiments
Procedure: as §3, §4, §5

[6] = tested on: MRC-5 (human fetal lung fibroblasts); test: Antiproliferative MTT assay, MRC-5; assay type: cell-based; settings: 72 h, mean ± SD of three experiments
Procedure: as §3, §4, §5

[7] = tested on: HL-60 (acute promyelocytic leukemia); test: Antiproliferative MTT assay, HL-60; assay type: cell-based, human; settings: mean ± SD of three experiments
Procedure: as §3, §4, §5

[8] = Homo sapiens, MRC5, non-tumor cell line
[9] = Plasmodium falciparum, DD2, 72 h, chloroquine-resistant strain, three days incubation, HRP2-ELISA, mean ± SD, n ≥ 2
[10] = Plasmodium falciparum, 3D7, 72 h, chloroquine-sensitive strain, three days incubation, HRP2-ELISA, mean ± SD, n ≥ 2

| Compound | melting point | IC50 ([3]; Homo sapiens, HeLa) [nM] | IC50 ([4]; Homo sapiens, THP-1, 72 h) [µM] | IC50 (HuT78 (T-cell lymphoma); Homo sapiens, HuT78, 72 h) [µM] | IC50 ([5]; Homo sapiens, Caco-2, 72 h) [µM] | IC50 [6, 8] [µM] | IC50 [1, 9] [nM] | IC50 [2, 10] [nM] | IC50 ([7]; Homo sapiens, HL-60, 72 h) [nM] | other results |
| --- | --- | --- | --- | --- | --- | --- | --- | --- | --- | --- |
| N=C(NC1CCCC1)c1ccc2nc(-c3ccc(OCCNc4ccnc5cc(Cl)ccc45)c(Br)c3)[nH]c2c1 (as salt: hydrochloride) [Compound 11d, 2-{3-bromo-4-[2-(7-chloroquinolin-4-ylamino)ethoxy]phenyl}-N-cyclopentyl-1H-benzo[d]imidazole-5(6)-carboximidamide trihydrochloride] | 234 °C (dec.) | – | – | – | – | – | – | – | – | – |
| COc1cc(-c2nc3ccc(C(=N)NC4CCCC4)cc3[nH]2)ccc1OCCNc1ccnc2cc(Cl)ccc12 (as salt: hydrochloride) [Compound 12d, 2-{3-methoxy-4-[2-(7-chloroquinolin-4-ylamino)ethoxy]phenyl}-N-cyclopentyl-1H-benzo[d]imidazole-5(6)-carboximidamide trihydrochloride] | 226 °C (dec.) | – | – | – | – | – | – | – | – | – |
| N=C(NC1CCCC1)c1ccc2nc(-c3ccc(OCCCNc4ccnc5cc(Cl)ccc45)cc3)[nH]c2c1 (as salt: hydrochloride) [Compound 13d] | > 275 °C | – | – | – | – | – | – | – | – | – |
| N=C(NC1CCCC1)c1ccc2nc(-c3ccc(OCCCNc4ccnc5cc(Cl)ccc45)c(Br)c3)[nH]c2c1 (as salt: hydrochloride) [Compound 14d] | 265 °C (dec.) | – | – | – | – | – | – | – | – | – |
| COc1cc(-c2nc3ccc(C(=N)NC4CCCC4)cc3[nH]2)ccc1OCCCNc1ccnc2cc(Cl)ccc12 (as salt: hydrochloride) [Compound 15d] | 260 °C (dec.) | – | – | – | – | – | – | – | – | – |
| CCN(CC)CCCC(C)Nc1ccnc2cc(Cl)ccc12 (centres unmarked) [CQ, Chloroquine, reference compound] | – | – | – | – | – | – | – | – | – | IC50 ([1]; Plasmodium falciparum, DD2, 72 h): 360 ± 27.1 nM; IC50 ([2]; Plasmodium falciparum, 3D7, 72 h): 11.1 ± 0.5 nM |
| Clc1ccc2c(NCCOc3ccc(-c4nc5ccccc5[nH]4)cc3)ccnc2c1 [Compound 10a] | 171 to 173 °C | 3400 ± 500 | 2.4 ± 0.2 | 2.8 ± 0.5 | 6.1 ± 4.9 | 3.1 ± 0.3 | 3.3 ± 0.1 | 2.7 ± 0.2 | 1300 ± 900 | – |
| Clc1ccc2c(NCCOc3ccc(-c4nc5ccc(Cl)cc5[nH]4)cc3)ccnc2c1 [Compound 10b, 7-chloro-N-{2-[4-(5(6)-chloro-1H-benzo[d]imidazole-2-yl)phenoxy]ethyl}quinolin-4-amine] | 222 to 224 °C | 2700 ± 200 | 3.4 ± 0.8 | 1.6 ± 1.2 | 1.9 ± 0.2 | 4 ± 1.1 | 4.9 ± 0.8 | 3.5 ± 1.5 | 2000 ± 400 | – |
| COc1ccc2nc(-c3ccc(OCCNc4ccnc5cc(Cl)ccc45)cc3)[nH]c2c1 [Compound 10c, 7-chloro-N-{2-[4-(5(6)-methoxy-1H-benzo[d]imidazole-2-yl)phenoxy]ethyl}quinolin-4-amine] | 248 °C (dec.) | 2600 ± 400 | 3.8 ± 0.4 | 2.3 ± 0.8 | 1.7 ± 0.1 | 4.9 ± 1.7 | 10.1 ± 5 | 6.8 ± 1.8 | 1800 ± 500 | – |
| Clc1ccc2c(NCCOc3ccc(-c4nc5ccccc5[nH]4)cc3Br)ccnc2c1 [Compound 11a, N-{2-[4-(1H-benzo[d]imidazole-2-yl)-2-bromophenoxy]ethyl}-7-chloroquinolin-4-amine] | 226 to 228 °C | 2600 ± 200 | 4.9 ± 7.3 | 2.4 ± 0.6 | 2.1 ± 0.6 | 2.2 ± 0.8 | 8.7 ± 3.4 | 36.9 ± 1.5 | 300 ± 300 | – |
| Clc1ccc2c(NCCOc3ccc(-c4nc5ccc(Cl)cc5[nH]4)cc3Br)ccnc2c1 [Compound 11b, N-{[2-bromo-4-(5(6)-chloro-1H-benzo[d]imidazole-2-yl)phenoxy]ethyl}-7-chloroquinolin-4-amine] | 238 to 240 °C | 5400 ± 4600 | 4.4 ± 5.1 | 5.8 ± 1.9 | 13.3 ± 2.5 | 3 ± 0.9 | 88.3 ± 3.1 | 87.3 ± 3.3 | 1300 ± 900 | – |
| COc1ccc2nc(-c3ccc(OCCNc4ccnc5cc(Cl)ccc45)c(Br)c3)[nH]c2c1 [Compound 11c, N-{[2-bromo-4-(5(6)-methoxy-1H-benzo[d]imidazole-2-yl)phenoxy]ethyl}-7-chloroquinolin-4-amine] | 208 to 210 °C | 2500 ± 400 | 3.5 ± 7.3 | 3 ± 1.1 | 1.5 ± 0.3 | 5.3 ± 2.4 | 28 ± 0.6 | 19.7 ± 4.2 | 2200 ± 400 | – |
| N=C(NC1CCCC1)c1ccc2nc(-c3ccc(OCCNc4ccnc5cc(Cl)ccc45)c(Br)c3)[nH]c2c1 [Compound 11d, 2-{3-bromo-4-[2-(7-chloroquinolin-4-ylamino)ethoxy]phenyl}-N-cyclopentyl-1H-benzo[d]imidazole-5(6)-carboximidamide trihydrochloride] | – | > 100000 | 33.9 ± 3.6 | 17.3 ± 9.2 | > 100 | > 100 | 984 ± 521 | 321 ± 32.8 | 44300 ± 1200 | – |
| COc1cc(-c2nc3ccccc3[nH]2)ccc1OCCNc1ccnc2cc(Cl)ccc12 [Compound 12a, N-{[4-(1H-benzo[d]imidazole-2-yl)-2-methoxyphenoxy]ethyl}-7-chloroquinolin-4-amine] | 210 to 212 °C | 2200 ± 100 | 3 ± 0.6 | 4.2 ± 2.1 | 2 ± 0.3 | 3.8 ± 0.4 | 91.2 ± 9.5 | 14.5 ± 4 | 2000 ± 300 | – |
| COc1cc(-c2nc3ccc(C(=N)NC4CCCC4)cc3[nH]2)ccc1OCCNc1ccnc2cc(Cl)ccc12 [Compound 12d, 2-{3-methoxy-4-[2-(7-chloroquinolin-4-ylamino)ethoxy]phenyl}-N-cyclopentyl-1H-benzo[d]imidazole-5(6)-carboximidamide trihydrochloride] | – | > 100000 | 100 | 16.1 ± 4.7 | > 100 | > 100 | 120 ± 7.5 | 190 ± 11.5 | 52500 ± 5100 | – |
| N=C(NC1CCCC1)c1ccc2nc(-c3ccc(OCCCNc4ccnc5cc(Cl)ccc45)cc3)[nH]c2c1 [Compound 13d] | – | > 100000 | 14.4 ± 3.1 | 15.2 ± 3 | > 100 | 83 ± 5.4 | 198.3 ± 0.1 | 57.4 ± 1.9 | 18200 ± 6700 | – |
| N=C(NC1CCCC1)c1ccc2nc(-c3ccc(OCCCNc4ccnc5cc(Cl)ccc45)c(Br)c3)[nH]c2c1 [Compound 14d] | – | > 100000 | 100 | 19.7 ± 4 | > 100 | > 100 | 451 ± 40.3 | 159 ± 22.6 | 24400 ± 4400 | – |
| N-{2-[4-(1H-benzo[d]imidazole-2-yl)-2-bromophenoxy]propyl}-7-chloroquinolin-4-amine [Compound 14a] | – | – | – | – | – | – | – | – | – | IC50 [3]: 1200 ± 700 nM; IC50 ([4]; 72 h): 5.1 ± 1.7 µM; IC50 (HuT78 (T-cell lymphoma); 72 h): 1.7 ± 0.4 µM; IC50 ([5]; 72 h): 5 ± 7.3 µM; IC50 ([6]; non-tumor cell line): 0.6 ± 0.6 µM; IC50 ([1]; chloroquine-resistant strain, three days incubation, HRP2-ELISA, mean ± SD, n ≥ 2): 13 ± 1.9 nM; IC50 ([2]; chloroquine-sensitive strain, three days incubation, HRP2-ELISA, mean ± SD, n ≥ 2): 9.3 ± 0.9 nM; IC50 ([7]; 72 h): 700 ± 500 nM |
